Data: patent US10004754B2, “ANP fragment adjuvant therapy to standard of care (SOC) diuretic treatment” (MADELEINE PHARMACEUTICALS PTY LTD, priority 2014, dated 2018)
Where no end group is shown, it is not given here.

Tests used:
clinical = experiment: clinical; design: species or system human; conditions: in vivo
stable CHF patients = experiment: Renal function (eGFR, plasma creatinine, MAG3 clearance) with sc VSDL infusion, Example 2; assay type: in vivo, human; conditions: for Plasma Creatinine % Change: given without sign, a decrease; for Plasma Creatinine: baseline 161.7 ± 58; for MAG3 Clearance % change: Post-Treatment vs Pre-Treatment; for MAG3 Clearance: Post-Treatment
Method: A second study was conducted with a population of eighteen (18) test adult CHF patients, both male and female, in order to further evaluate the improvement in renal and cardiac function in stable CHF patients given VSDL (by sc administration) in addition to standard of care (SOC) treatment.
Participants were selected on the basis of the Inclusion and Exclusion criteria given in Example 1. […] In addition, selected patients were required to have a plasma brain natriuretic peptide (BNP) concentration of ≥100 pg/mL and a GFR ≥25 mL/min and <70 mL/min as calculated by the Cockroft Gault calculation (ie moderate renal impairment). On the other hand, the presence of acute MI (ie as indicated by ST elevation and/or elevation of Troponin-T) or evidence of MI or other high risk acute coronary syndrome within the past 6 weeks, hypotension (ie systolic blood pressure (SBP) <90 mmHg), persistent and/or uncontrolled hypertension (SBP>180 mmHg), cardiogenic shock or any other clinical condition that would contraindicate administration of an agent with potent vasodilatory effects, excluded patients from participating in the study. Participants in this study also had standard exclusion criteria that accompany pulmonary artery (SG) catheterisation.
The study was an open-label, sequential group, continuous sc infusion study conducted at a single centre. Two steady-state concentration levels (Css) of VSDL were targeted, approximately 10 ng/mL (n=2 lead-in, and n=10, cohort 1) and 20 ng/mL (n=6, cohort 2). The two lead-in patients were treated with similar dose regimens to confirm that the measured plasma concentrations were in agreement with the targeted Css. Two patients from cohort 1 and all 6 patients from cohort 2 underwent pulmonary artery Swan-Ganz (SG) catheterisation to enable haemodynamic monitoring.
VSDL prepared as described in Example 1, was administered via sc 6 or 12 hour infusion into the lower abdomen at a maximum volume rate of 350 μL/hr (ie approximately 6 μL/min). The rate of infusion of VSDL for the targeted Css level of 10 ng/mL was either 900 μg/hr (0.3 mL/hr) for 12 hrs or a bimodal infusion of 900 μg/hr for 5 hrs followed by 550 μg/hr (0.18 mL/hr) for 7 hrs. The rate of infusion of VSDL for the targeted Css level of 20 ng/mL was bimodal; 1800 μg/hr (0.20 mL/hr) for 5 hrs followed by 1100 μg/hr (0.12 mL/hr) for 7 hrs (see WO 2014/138796). For the lead-in patients, the infusions were performed at 900 μg/hr for 6 hrs.
R Studio (version 4) and GraphPad Prism (GraphPad Software, version 6) were used for all statistical analyses. Statistically significant changes from base line for all parameters were tested using with linear mixed effects model or one-way repeated measures ANOVA with Bonferroni correction. A p value of 0.05 was set for statistically significant differences. All data are reported as mean±s.d or mean (95% CI).
This change was also accompanied by a 10% decrease in plasma creatinine from 162±58 μmol/L at baseline to […] (p≤0.05) during infusion (Table 6).

## EVVPPQVLSEPNEEAGAALSPLPEVPPWTGEVSPAQR [VSDL]
clinical; both sexes, human, sc
  bioavailability: 19.2%
clinical; human, sc
  CL Maximum Elimination rate, Pop value: 26.8 L/h
  F Bioavailability, Pop value: 26.894%
clinical
  ETASHARE Random effect scalinmg factor, Pop value: 1.000 ratio
clinical; iv
  RUVADDIV Residual Error (Additive, I.V.), Pop value: 0.248 ng/mL
  RUVCVIV Residual Error (Proportional, I.V.), Pop value: 0.336 ratio
clinical; sc
  FVOL Infused volume on F, Pop value: 1.590 ratio
  KA Absorption rate constant, Pop value: 0.625 h⁻¹
  LGT Logit F value, Pop value: −1.00
  RUVADDSC Residual Error (Additive, S.C.), Pop value: 0.070 ng/mL
  RUVCVSC Residual Error (Proportional, S.C.), Pop value: 0.259 Ratio
  V2 S.C. bolus V scaling factor, Pop value: 1.62 ratio
  V3 S.C. infusion V scaling factor, Pop value: 3.65 ratio
  V Central volume, Pop value: 13.20 L
Stable CHF patients; >0.5-6 hs vs baseline
  Plasma Creatinine % Change: (8) %
Stable CHF patients; >0.5-6 hs
  Plasma Creatinine: 148.5 ± 60 µmol/L
Stable CHF patients; >6-12 hs vs baseline
  Plasma Creatinine % Change: (10) %
Stable CHF patients; >6-12 hs
  Plasma Creatinine: 146 ± 60 µmol/L
Stable CHF patients; FIGS. 6A and B
  eGFR and plasma creatinine in relation to plasma concentration of VSDL: improved with rising circulating levels of VSDL
Stable CHF patients; Stage 3A CKD
  MAG3 Clearance, Post (Pre-Treatment): 14 ± 7 ml/min/1.73 m^2
  MAG3 Clearance % change: (9) %
Stable CHF patients; Stage 3A CKD, Pre-Treatment 148.5 ± 26
  MAG3 Clearance: 162.5 ± 24 ml/min/1.73 m^2
Stable CHF patients; Stage 3B CKD
  MAG3 Clearance, Post (Pre-Treatment): .3 ± 9 ml/min/1.73 m^2
  MAG3 Clearance % change: (0) %
Stable CHF patients; Stage 3B CKD, Pre-Treatment 164.5 ± 32
  MAG3 Clearance: 164.8 ± 33 ml/min/1.73 m^2
Stable CHF patients; Stage 4 CKD
  MAG3 Clearance, Post (Pre-Treatment): 17 ± 16 ml/min/1.73 m^2
  MAG3 Clearance % change: (16) %
Stable CHF patients; Stage 4 CKD, Pre-Treatment 106.0 ± 58
  MAG3 Clearance: 123.3 ± 56 ml/min/1.73 m^2
Stable CHF patients; adjuvant treatment with VSDL
  eGFR and MAG3 clearance across all classes of CKD: numerical increases
Stable CHF patients; all patients
  MAG3 Clearance, Post (Pre-Treatment): 9 ± 12 ml/min/1.73 m^2
  MAG3 Clearance % change: (6) %
Stable CHF patients; all patients, Pre-Treatment 140.3 ± 44
  MAG3 Clearance: 148.9 ± 41 ml/min/1.73 m^2
Stable CHF patients; during infusion vs baseline
  decrease in plasma creatinine: 10%
Stable CHF patients; during the 12 hour infusion vs baseline
  improvement in eGFR: 16%
Stable CHF patients; during the 12 hour infusion, baseline 38±11, p≤0.05
  estimated glomerular filtration rate (eGFR): 44±14 ml/min/1.73 m^2
Stable CHF patients; eGFR 15-29 (Stage 4 CKD), >0.5-6 hs vs baseline
  eGFR % Change: (23) %
Stable CHF patients; eGFR 15-29 (Stage 4 CKD), >0.5-6 hs, baseline 23.5 ± 5
  eGFR: 28.8 ± 10 ml/min/1.73 m^2
Stable CHF patients; eGFR 15-29 (Stage 4 CKD), >6-12 hs, baseline 23.5 ± 5
  eGFR: 30 ± 12 ml/min/1.73 m^2
Stable CHF patients; eGFR 30 to 44 (Stage 3B CKD), >0.5-6 hs vs baseline
  eGFR % Change: (12) %
Stable CHF patients; eGFR 30 to 44 (Stage 3B CKD), >0.5-6 hs, baseline 37.7 ± 4
  eGFR: 42.3 ± 10 ml/min/1.73 m^2
Stable CHF patients; eGFR 30 to 44 (Stage 3B CKD), >6-12 hs vs baseline
  eGFR % Change: (12) %
Stable CHF patients; eGFR 30 to 44 (Stage 3B CKD), >6-12 hs, baseline 37.7 ± 4
  eGFR: 42.3 ± 10 ml/min/1.73 m^2
Stable CHF patients; eGFR 45-59 (Stage 3A CKD), >0.5-6 hs vs baseline
  eGFR % Change: (8) %
Stable CHF patients; eGFR 45-59 (Stage 3A CKD), >0.5-6 hs, baseline 49.8 ± 3
  eGFR: 54.0 ± 4 ml/min/1.73 m^2
Stable CHF patients; eGFR 45-59 (Stage 3A CKD), >6-12 hs vs baseline
  eGFR % Change: (14) %
Stable CHF patients; eGFR 45-59 (Stage 3A CKD), >6-12 hs, baseline 49.8 ± 3
  eGFR: 56.6 ± 4 ml/min/1.73 m^2
Stable CHF patients; lead-in patients, 900 μg/hr sc for 6 hours
  renal function (eGFR, MAG3 clearance, plasma creatinine), trend: improved renal function
